Test results taken from PMC6321291, “Synthesis, Biological Evaluation and Docking Studies of Benzoxazoles Derived from Thymoquinone” (Molecules, 2018).
Converted amounts (≈) assume the structure as drawn.

Assays:
[1] = test system: HepG2 (hepatocellular carcinoma); assay: MTT assay, HepG2; format: cell-based; settings: Homo sapiens, 72 h
Experimental: (§1) The tested compounds were dissolved in DMSO in five, 10-fold dilutions (0.01–100 µM). The cell lines HeLa (cervical carcinoma), SW620 (colorectal adenocarcinoma, metastatic), HepG2 (hepatocellular carcinoma), CFPAC-1 (ductal pancreatic adenocarcinoma), and WI38 (human lung fibroblast cell line), were cultured as monolayers and maintained in Dulbecco’s modified Eagle medium (DMEM) supplemented with 10% fetal bovine serum (FBS), 2 mM L-glutamine, 100 U mL^−1 penicillin and 100 μg mL^−1 streptomycin in a humidified atmosphere with 5% CO2 at 37 °C.
(§2) The MTT assay was used for evaluation of effects of tested compounds on viability of carcinoma and control cell lines. About 5000 cells per well were seeded onto a series of standard 96-well plates on day 0. Test agents were then added and incubated for further 72 h. Working dilutions of tested compounds were freshly prepared in the growth medium, on the day of testing. The solvent (DMSO) was also tested for eventual inhibitory activity by adjusting its concentration to be the same as in the working concentrations (DMSO concentration never exceeded 0.1%). After 72 h of incubation, the cell growth rate was evaluated by performing the MTT assay: experimentally determined absorbance values were transformed into a cell percentage growth (PG) using the formulas proposed by NIH and described previously. This method directly relies on control cells number at the day of assay because it compares the growth of treated cells with the growth of untreated cells in control wells on the same plate, the results are therefore a percentile difference from the calculated expected value.
(§3) If, however, all of the tested concentrations produce PGs exceeding the respective reference level of effect (e.g., PG value of 50) for a given cell line, the highest tested concentration is assigned as the default value (in the screening data report that default value is preceded by a “>” sign). Each test point was performed in quadruplicate in three individual experiments. The results were statistically analyzed (Analysis of variance (ANOVA), Tukey post-hoc test at p < 0.05). Finally, the effects of the tested substances were evaluated by plotting the mean percentage growth for each cell type in comparison to control on dose response graphs.

[2] = MTT assay, WI38 healthy control; format: cell-based; settings: WI38 human lung fibroblast cells, WI38 healthy control human fibroblast cell line
Experimental: as §1, §2, §3

[3] = test system: CFPAC-1 (ductal pancreatic adenocarcinoma); assay: MTT assay, CFPAC-1; format: cell-based; settings: Homo sapiens, 72 h
Experimental: as §1, §2, §3

[4] = test system: HeLa (cervical carcinoma); assay: MTT assay, HeLa; format: cell-based; settings: Homo sapiens, 72 h
Experimental: as §1, §2, §3

[5] = test system: SW620 (colorectal adenocarcinoma, metastatic); assay: MTT assay, SW620; format: cell-based; settings: Homo sapiens, SW-620, 72 h
Experimental: as §1, §2, §3

[6] = test system: Staphylococcus aureus ATCC 6538; assay: Micro-dilution MIC assay, S. aureus; format: cell-based; settings: ATCC6538, 24 h at 37 °C
Experimental: (§4) Antimicrobial activity of compounds was evaluated in vitro on eight bacterial strains (Escherichia coli ATCC 25922 (ATCC = American Type Culture Collection, Manassas, VA, USA), Pseudomonas aeruginosa ATCC 9027, Proteus hauseri ATCC 13315, Klebsiella pneumoniae ATCC 10031, Staphylococcus aureus ATCC 6538, Bacillus subtilis ATCC 6633, Clostridium sporogenes ATCC 19404 and Micrococcus luteus ATCC 10240) and three fungi (Candida albicans ATCC 10231, Saccharomyces cerevisiae ATCC 9763 and Aspergillus brasiliensis ATCC 16404).
(§5) Micro-dilution assay was used for determination of tested compounds MIC. A serial dilution method in sterile 96-well microtitre plates was performed. Fresh Mueller–Hinton broth (for bacteria) and Sabouraud dextrose broth (for fungi) were used. In sterile physiological solution, suspensions containing 1.5 × 10^8 CFU mL^−1 for bacteria and 1.5 × 10^7 CFU mL^−1 for fungi were made (according to McFarland). One hundred microliters of broth were added to each well of the plate. Stock solutions of tested compounds were made in DMSO at concentration 10 mg mL^−1, and then 100 μL of the compound stock solution was added to each well of the first column. Double dilution was made in whole row for one tested compound, and repeated for all tested compounds in other rows. Amikacin served as positive control for bacteria, while nystatin served as positive control for fungi. The solvent (DMSO) was used as the negative control. Afterwards, each well was inoculated with 10 μL of microorganism suspension. After incubation, 24 h at 37 °C for bacteria and 48 h at 25 °C for fungi, results were read. The lowest concentration where no growth of microorganism was detected represented MIC.

[7] = test system: Proteus hauseri ATCC 13315; assay: Micro-dilution MIC assay, P. hauseri; format: cell-based; settings: ATCC13315, 24 h at 37 °C
Experimental: as §4, §5

[8] = test system: Escherichia coli ATCC 25922; assay: Micro-dilution MIC assay, E. coli; format: cell-based; settings: ATCC25922, 24 h at 37 °C
Experimental: as §4, §5

[9] = test system: Bacillus subtilis ATCC 6633; assay: Micro-dilution MIC assay, B. subtilis; format: cell-based; settings: ATCC6633, 24 h at 37 °C
Experimental: as §4, §5

[10] = test system: Clostridium sporogenes ATCC 19404; assay: Micro-dilution MIC assay, C. sporogenes; format: cell-based; settings: ATCC19404, 24 h at 37 °C
Experimental: as §4, §5

[11] = test system: Klebsiella pneumoniae ATCC 10031; assay: Micro-dilution MIC assay, K. pneumoniae; format: cell-based; settings: ATCC10031, 24 h at 37 °C
Experimental: as §4, §5

[12] = test system: Aspergillus brasiliensis ATCC 16404; assay: Micro-dilution MIC assay, A. brasiliensis; format: cell-based; settings: Aspergillus brasiliensis, ATCC16404; A. braziliensis; 48 h at 25 °C; read-out: MIC
Experimental: as §4, §5

[13] = test system: Candida albicans ATCC 10231; assay: Micro-dilution MIC assay, C. albicans; format: cell-based; settings: Candida albicans, ATCC10231, 48 h at 25 °C, read-out: MIC
Experimental: as §4, §5

[14] = test system: Micrococcus luteus ATCC 10240; assay: Micro-dilution MIC assay, M. luteus; format: cell-based; settings: ATCC10240, 24 h at 37 °C
Experimental: as §4, §5

[15] = test system: Saccharomyces cerevisiae ATCC 9763; assay: Micro-dilution MIC assay, S. cerevisiae; format: cell-based; settings: Saccharomyces cerevisiae, ATCC9763, 48 h at 25 °C, read-out: MIC
Experimental: as §4, §5

[16] = test system: Pseudomonas aeruginosa ATCC 9027; assay: Micro-dilution MIC assay, P. aeruginosa; format: cell-based; settings: ATCC9027, 24 h at 37 °C
Experimental: as §4, §5

IC50 [1] [µM]	IC50 at 72 h [2] [µM]	IC50 [3] [µM]	melting point [°C]	IC50 [4] [µM]	IC50 [5] [µM]	SMILES	MIC [6] [µM]	MIC [7] [µM]	MIC [8] [µM]	MIC [9] [µM]	MIC [10] [µM]	MIC [11] [µM]	MIC [12] [µM]	MIC [13] [µM]	MIC [14] [µM]	MIC [15] [µM]	MIC [16] [µM]
7.28	9.97	27	152	10.3	31.6	Cc1c(O)cc(C(C)C)c2oc(-c3cccs3)nc12 [1j, 4-Methyl-7-isopropyl-2-(thiophene-2-yl)-1,3-benzoxazole-5-ol]	–	–	–	–	–	–	–	–	–	–	–
32.3	29.8	31	172	25	43.7	Cc1c(O)cc(C(C)C)c2oc(-c3ccccc3O)nc12 [1b, 2-(2-Hydroxyphenyl)-4-methyl-7-isopropyl-1,3-benzoxazole-5-ol]	–	–	–	–	–	–	–	–	–	–	–
4.58	9.32	40.6	168	6.38	55.3	COc1cc(-c2nc3c(C)c(O)cc(C(C)C)c3o2)ccc1O [1i, 2-(4-Hydroxy-3-methoxyphenyl)-4-methyl-7-isopropyl-1,3-benzoxazole-5-ol]	–	–	–	–	–	–	–	–	–	–	–
39.3	19.9	90.2	164	32.2	> 100	Cc1c(O)cc(C(C)C)c2oc(-c3ccccc3)nc12 [1a, 4-Methyl-2-phenyl-7-isopropyl-1,3-benzoxazole-5-ol]	–	–	–	–	–	–	–	–	–	–	–
> 100	75.9	97	178	> 100	> 100	COc1ccc(-c2nc3c(C)c(O)cc(C(C)C)c3o2)cc1 [1h, 2-(4-Methoxyphenyl)-4-methyl-7-isopropyl-1,3-benzoxazole-5-ol]	–	–	–	–	–	–	–	–	–	–	–

SMILES	IC50 [1] [µM]	IC50 at 72 h [2] [µM]	IC50 [3] [µM]	melting point [°C]	IC50 [4] [µM]	IC50 [5] [µM]	MIC [6] [µM]	MIC [7] [µM]	MIC [8] [µM]	MIC [9] [µM]	MIC [10] [µM]	MIC [11] [µM]	MIC [12] [µM]	MIC [13] [µM]	MIC [14] [µM]	MIC [15] [µM]	MIC [16] [µM]
CC1=C(N)C(=O)C(C(C)C)=CC1=O [ATQ, 3-Aminothymoquinone]	8.26	9.41	30.9	–	15.7	25.8	112 (≈ 20 µg/mL)	218 (≈ 39 µg/mL)	112 (≈ 20 µg/mL)	218 (≈ 39 µg/mL)	435 (≈ 78 µg/mL)	435 (≈ 78 µg/mL)	880 (≈ 158 µg/mL)	1750 (≈ 314 µg/mL)	59.7 (≈ 10.7 µg/mL)	220 (≈ 39.4 µg/mL)	218 (≈ 39 µg/mL)
